In ChEMBL document CHEMBL1201862, “PubChem BioAssay data set” (2004):
Activity calls are given as the source filed them.

Assays:
[1] = target: T1, Nuclear receptor subfamily 0 group B member 1 (Homo sapiens, UniProt P51843); assay: Luminescence-based cell-based high throughput dose response assay for inhibitors of the orphan nuclear receptor subfamily 0, group B, member 1 (DAX1; NR0B1). [Related pubchem assays (depositor defined):AID504766, AID504790]; format: functional
T1 sequence (P51843 whole entry): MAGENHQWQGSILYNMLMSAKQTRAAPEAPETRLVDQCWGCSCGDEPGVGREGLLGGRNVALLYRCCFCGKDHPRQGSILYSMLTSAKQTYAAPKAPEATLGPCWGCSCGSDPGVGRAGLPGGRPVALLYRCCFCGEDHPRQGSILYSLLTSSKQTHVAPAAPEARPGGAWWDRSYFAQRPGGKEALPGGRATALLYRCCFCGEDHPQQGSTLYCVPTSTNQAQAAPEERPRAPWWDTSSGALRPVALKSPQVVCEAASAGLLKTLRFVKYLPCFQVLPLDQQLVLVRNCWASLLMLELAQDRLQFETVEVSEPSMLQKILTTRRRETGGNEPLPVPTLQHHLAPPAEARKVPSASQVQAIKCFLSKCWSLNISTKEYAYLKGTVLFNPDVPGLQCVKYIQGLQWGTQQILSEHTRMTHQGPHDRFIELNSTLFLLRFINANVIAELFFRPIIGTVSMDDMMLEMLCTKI

HEK293 [2] = assay: cells; format: functional, cell-based; conditions: Homo sapiens
CAAX prenyl protease 2 = target: T2, CAAX prenyl protease 2 (Homo sapiens, UniProt Q9Y256); assay: human Rce1 protease inhibitors, dose response, biochemical, yeast membranes, quenched-peptide fluorescence, cherry-pick (AID 588849)
T2 sequence (Q9Y256 whole entry): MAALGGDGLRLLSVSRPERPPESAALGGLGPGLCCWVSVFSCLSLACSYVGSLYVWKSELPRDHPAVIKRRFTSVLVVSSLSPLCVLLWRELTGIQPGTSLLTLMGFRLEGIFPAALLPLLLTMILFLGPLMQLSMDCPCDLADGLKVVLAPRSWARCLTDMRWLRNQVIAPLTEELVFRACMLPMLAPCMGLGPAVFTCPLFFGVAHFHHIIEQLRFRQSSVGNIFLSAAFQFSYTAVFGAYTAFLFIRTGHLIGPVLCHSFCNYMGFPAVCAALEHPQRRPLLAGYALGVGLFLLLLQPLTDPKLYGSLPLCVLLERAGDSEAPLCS

Trypsin = Trypsin (Sus scrofa, UniProt P00761); assay: porcine trypsin inhibitors, dose response, selectivity assay for Rce1 protease inhibitor project, biochemical, quenched peptide fluorescence, cherry-pick (AID 488789)
[3] = cytotoxicity in MIN6 insulinoma cells, dose response, cytotoxicity control, cell-based, mouse insulinoma (AID 2122); format: functional;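 note: confirmatory high-throughput counterscreen run to flag cytotoxic compounds; mouse MIN-6 beta cells carrying an insulin promoter eGFP reporter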
[4] = insulin promoter down-regulators in MIN6 cells, imaging, high-content screening, mouse beta cells (AID 1628); format: functional
INS1 = assay: beta cell apoptosis inhibitors, cytokine rescue, dose response, luminescence, retest (AID 449756); format: functional, cell-based; conditions: Rattus norvegicus;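 note: cell death triggered by IL-1 beta plus TNF-alpha plus IFN-gamma mixture; protective hits raise ATP signal compared with cytokine alone wells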
Coagulation factor XII = target: T3, Coagulation factor XII (Homo sapiens, UniProt P00748); format: functional;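 note: activated factor XIIa alpha cleaving a fluorogenic AMC peptide substrate; inhibitor potency from loss of enzyme activity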
T3 sequence (P00748 whole entry): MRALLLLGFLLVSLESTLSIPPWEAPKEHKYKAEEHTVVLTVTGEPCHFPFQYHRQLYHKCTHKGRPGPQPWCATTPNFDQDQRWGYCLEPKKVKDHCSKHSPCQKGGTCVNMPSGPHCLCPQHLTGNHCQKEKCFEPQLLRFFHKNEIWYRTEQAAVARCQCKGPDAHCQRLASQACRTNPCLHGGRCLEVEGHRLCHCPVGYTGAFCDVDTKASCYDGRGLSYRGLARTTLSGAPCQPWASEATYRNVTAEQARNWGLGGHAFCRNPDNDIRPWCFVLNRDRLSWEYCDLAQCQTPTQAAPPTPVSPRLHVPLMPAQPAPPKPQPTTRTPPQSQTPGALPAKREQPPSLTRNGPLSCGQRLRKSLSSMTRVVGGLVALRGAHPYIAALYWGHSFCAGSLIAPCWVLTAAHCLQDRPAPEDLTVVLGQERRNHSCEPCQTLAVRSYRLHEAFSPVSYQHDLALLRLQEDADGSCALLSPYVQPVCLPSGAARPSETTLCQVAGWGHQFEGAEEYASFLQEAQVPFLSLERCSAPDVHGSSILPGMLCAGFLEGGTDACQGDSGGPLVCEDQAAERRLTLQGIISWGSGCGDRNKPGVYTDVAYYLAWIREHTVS

Genome polyprotein = Genome polyprotein (dengue virus type 2, UniProt P29990); assay: Dengue-2 NS5 methyltransferase inhibitors, primary screen, biochemical, confirmation dose response (AID 588689); format: functional
[5] = HepG2 cell cytotoxicity, dose response, cytotoxicity control for Shn3 inhibitor project, CellTiter-Glo, cherry-picked (AID 624134); format: functional, cell-based
[6] = Shn3 3'UTR reporter inhibitors, dose response, cell-based, Clone20 osteoblasts, firefly luciferase, cherry-picked (AID 624132); format: functional;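 note: firefly luciferase luminescence from reporter carrying the Shn3 3'UTR in osteoblasts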
[7] = control 3'UTR Renilla luciferase suppression, dose response, counter-screen for Shn3 inhibitor project, cell-based, Clone20-Shn3RL, cherry-picked (AID 624133); format: functional
HEK293 [8] = assay: cells; format: functional, cell-based; conditions: Homo sapiens; remark: listed apart in the source
HEK293 [9] = assay: cells; format: functional, cell-based; conditions: Homo sapiens; remark: listed apart in the source
HEK293 [10] = assay: NOD2 signaling inhibitors in MDP-stimulated cells, cell-based, uHTS, luminescence (AID 2001); format: functional; conditions: Homo sapiens
HEK293 [11] = assay: NOD1 signaling inhibitors, primary screen, cell-based, luminescence, uHTS (AID 1578); format: functional; conditions: Homo sapiens
[12] = target: T4, Lysine-specific demethylase 4C (Homo sapiens, UniProt Q9H3R0); assay: GASC-1 (JMJD2C) histone demethylase inhibitors, dose response, biochemical, DELFIA europium, cherry-picked samples (AID 488835); format: functional
T4 sequence (Q9H3R0 whole entry): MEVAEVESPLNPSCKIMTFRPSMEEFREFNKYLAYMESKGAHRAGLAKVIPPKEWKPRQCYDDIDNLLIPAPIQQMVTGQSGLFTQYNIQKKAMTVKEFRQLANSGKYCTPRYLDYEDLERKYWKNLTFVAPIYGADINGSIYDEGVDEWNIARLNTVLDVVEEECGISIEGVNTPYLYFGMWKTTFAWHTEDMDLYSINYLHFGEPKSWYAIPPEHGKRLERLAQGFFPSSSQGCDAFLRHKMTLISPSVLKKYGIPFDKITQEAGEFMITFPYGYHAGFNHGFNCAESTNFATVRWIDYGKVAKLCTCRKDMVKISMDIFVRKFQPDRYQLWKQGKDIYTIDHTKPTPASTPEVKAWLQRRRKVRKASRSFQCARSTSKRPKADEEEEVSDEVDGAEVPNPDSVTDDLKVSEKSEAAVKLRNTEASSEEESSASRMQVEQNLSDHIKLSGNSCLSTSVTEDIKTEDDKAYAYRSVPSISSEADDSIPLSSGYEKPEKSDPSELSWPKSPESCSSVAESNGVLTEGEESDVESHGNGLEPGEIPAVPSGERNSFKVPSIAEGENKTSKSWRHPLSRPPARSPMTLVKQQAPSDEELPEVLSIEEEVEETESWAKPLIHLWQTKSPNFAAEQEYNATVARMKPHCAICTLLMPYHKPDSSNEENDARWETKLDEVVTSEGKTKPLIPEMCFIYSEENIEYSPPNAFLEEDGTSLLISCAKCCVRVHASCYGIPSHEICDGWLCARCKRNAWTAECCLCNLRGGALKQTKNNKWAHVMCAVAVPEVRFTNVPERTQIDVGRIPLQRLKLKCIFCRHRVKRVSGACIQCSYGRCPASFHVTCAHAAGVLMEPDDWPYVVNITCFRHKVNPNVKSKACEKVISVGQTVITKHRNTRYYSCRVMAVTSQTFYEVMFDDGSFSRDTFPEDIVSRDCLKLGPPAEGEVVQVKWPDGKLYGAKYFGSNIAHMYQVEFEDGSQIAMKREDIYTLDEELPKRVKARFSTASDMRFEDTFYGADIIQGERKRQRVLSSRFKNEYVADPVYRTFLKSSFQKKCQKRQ

[13] = target: Eukaryotic translation initiation factor 4E (Mus musculus, UniProt P63073); assay: eIF4E–eIF4G protein interaction inhibitors, dose response, biochemical, TR-FRET (AID 855); format: functional;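 note: potency for disrupting eIF4E binding to eIF4GI seen as loss of FRET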
[14] = target: T5, Zinc finger protein mex-5 (Caenorhabditis elegans, UniProt Q9XUB2); assay: MEX-5/TCR-2 RNA interaction inhibitors, dose response, biochemical, C. elegans, fluorescence polarization (AID 1960)
T5 sequence (Q9XUB2 whole entry): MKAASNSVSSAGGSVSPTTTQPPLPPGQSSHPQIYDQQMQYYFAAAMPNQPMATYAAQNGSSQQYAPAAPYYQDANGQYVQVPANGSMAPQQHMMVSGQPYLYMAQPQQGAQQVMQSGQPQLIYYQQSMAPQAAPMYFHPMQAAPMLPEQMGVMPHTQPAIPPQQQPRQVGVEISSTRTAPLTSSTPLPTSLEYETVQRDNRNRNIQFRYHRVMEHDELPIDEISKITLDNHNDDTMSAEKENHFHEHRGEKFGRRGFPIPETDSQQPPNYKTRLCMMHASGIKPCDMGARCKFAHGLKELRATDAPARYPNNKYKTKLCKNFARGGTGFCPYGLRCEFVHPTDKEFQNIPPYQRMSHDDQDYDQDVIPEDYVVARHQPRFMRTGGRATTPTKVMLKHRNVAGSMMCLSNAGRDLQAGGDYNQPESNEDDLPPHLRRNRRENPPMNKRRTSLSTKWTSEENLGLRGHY

[15] = target: T6, RNA-binding protein pos-1 (Caenorhabditis elegans, UniProt G5EF15); assay: inhibitors of POS-1/mex-3 RNA binding, dose response, biochemical, fluorescence polarization (AID 1964);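 note: purified POS-1 fused to maltose binding protein made in E. coli; potency of compounds blocking POS-1 binding to fluorescent RNA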
T6 sequence (G5EF15 whole entry): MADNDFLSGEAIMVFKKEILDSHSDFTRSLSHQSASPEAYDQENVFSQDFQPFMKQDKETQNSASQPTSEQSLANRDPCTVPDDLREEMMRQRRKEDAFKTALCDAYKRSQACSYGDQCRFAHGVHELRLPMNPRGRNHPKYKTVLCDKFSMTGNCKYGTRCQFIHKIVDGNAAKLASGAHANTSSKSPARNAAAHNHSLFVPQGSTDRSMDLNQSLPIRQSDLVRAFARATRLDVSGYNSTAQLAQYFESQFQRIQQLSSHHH

[16] = target: Alkaline phosphatase, placental type (Homo sapiens, UniProt P05187); assay: PLAP enzyme inhibitors, confirmation, biochemical, luminescence (AID 1512); format: functional
Chain of Alkaline phosphatase, placental type (P05187 whole entry): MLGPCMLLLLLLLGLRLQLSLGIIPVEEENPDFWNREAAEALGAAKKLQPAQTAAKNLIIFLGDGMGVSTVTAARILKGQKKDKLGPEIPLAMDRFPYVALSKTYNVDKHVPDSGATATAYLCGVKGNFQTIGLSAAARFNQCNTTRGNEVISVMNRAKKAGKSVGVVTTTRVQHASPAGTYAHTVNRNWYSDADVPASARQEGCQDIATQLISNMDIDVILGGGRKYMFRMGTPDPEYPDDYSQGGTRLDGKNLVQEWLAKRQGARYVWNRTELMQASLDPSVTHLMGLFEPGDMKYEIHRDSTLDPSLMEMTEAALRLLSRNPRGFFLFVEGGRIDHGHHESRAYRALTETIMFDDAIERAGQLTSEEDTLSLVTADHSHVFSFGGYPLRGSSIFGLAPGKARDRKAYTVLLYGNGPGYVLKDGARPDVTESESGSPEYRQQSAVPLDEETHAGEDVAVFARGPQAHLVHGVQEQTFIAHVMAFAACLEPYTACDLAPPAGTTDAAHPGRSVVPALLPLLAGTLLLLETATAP

Chain of Genome polyprotein (P29990 2492-3391 limits assumed): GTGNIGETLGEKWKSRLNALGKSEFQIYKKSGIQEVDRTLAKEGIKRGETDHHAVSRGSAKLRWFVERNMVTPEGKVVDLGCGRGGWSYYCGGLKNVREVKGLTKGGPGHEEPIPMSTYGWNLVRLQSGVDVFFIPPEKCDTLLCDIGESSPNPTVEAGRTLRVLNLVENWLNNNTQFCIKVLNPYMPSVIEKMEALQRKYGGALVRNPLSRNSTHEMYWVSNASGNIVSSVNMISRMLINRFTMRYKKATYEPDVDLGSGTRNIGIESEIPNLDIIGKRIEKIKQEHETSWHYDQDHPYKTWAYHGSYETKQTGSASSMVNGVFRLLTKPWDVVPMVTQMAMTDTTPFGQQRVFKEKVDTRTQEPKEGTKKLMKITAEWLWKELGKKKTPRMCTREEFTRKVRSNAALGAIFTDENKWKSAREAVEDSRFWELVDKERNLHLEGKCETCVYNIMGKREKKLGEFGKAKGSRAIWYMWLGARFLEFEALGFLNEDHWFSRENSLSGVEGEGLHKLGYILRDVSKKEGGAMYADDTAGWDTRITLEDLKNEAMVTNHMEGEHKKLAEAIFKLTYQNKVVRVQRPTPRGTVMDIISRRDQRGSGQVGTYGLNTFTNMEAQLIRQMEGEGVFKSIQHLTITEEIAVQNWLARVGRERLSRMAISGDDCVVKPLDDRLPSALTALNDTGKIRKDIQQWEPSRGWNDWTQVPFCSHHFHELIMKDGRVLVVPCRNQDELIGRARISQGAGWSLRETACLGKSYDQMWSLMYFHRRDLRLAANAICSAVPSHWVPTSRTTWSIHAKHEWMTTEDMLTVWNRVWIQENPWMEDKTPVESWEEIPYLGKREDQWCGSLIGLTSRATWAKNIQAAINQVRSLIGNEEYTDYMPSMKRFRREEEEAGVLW
Chain of Trypsin (P00761 whole entry): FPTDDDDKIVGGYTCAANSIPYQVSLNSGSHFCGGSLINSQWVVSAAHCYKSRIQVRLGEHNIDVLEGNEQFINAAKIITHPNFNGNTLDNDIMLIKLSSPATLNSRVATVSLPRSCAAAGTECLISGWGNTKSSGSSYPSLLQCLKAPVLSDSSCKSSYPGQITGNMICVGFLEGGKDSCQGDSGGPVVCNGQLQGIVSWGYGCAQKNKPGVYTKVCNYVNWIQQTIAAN
Chain of Eukaryotic translation initiation factor 4E (P63073 whole entry): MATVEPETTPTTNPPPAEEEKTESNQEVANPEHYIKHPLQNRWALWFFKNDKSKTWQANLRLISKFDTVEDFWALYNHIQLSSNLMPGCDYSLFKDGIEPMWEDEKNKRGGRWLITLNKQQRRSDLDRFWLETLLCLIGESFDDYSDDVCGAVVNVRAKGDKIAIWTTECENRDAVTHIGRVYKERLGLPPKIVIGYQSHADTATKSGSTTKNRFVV

## CCN(CC)N=Nc1cccc(NC(C)=O)c1
[1]
  IC50: > 67.5 µM (inactive)
HEK293 [2]
  IC50: > 67.5 µM (inactive)

## NS(=O)(=O)c1ccc(CCNC(=O)c2ccc3ccccc3n2)cc1
CAAX prenyl protease 2
  AC50: 4.74 µM (active)
Trypsin
  AC50: 4.75 µM (active)

## O=[N+]([O-])c1ccc(N2CCN(C(S)=NCc3ccc(Cl)cc3)CC2)cc1
[3]
  IC50: 2.83 µM (active)
[4]
  IC50: 1.85 µM (active)
INS1
  AC50: 6.14 µM (active)

## Cc1ccc(NC(=O)CCn2cccc2)cc1C
Coagulation factor XII
  IC50: > 50 µM (inactive)

## CCOc1cc(/C=C2\C(=O)NC(=O)N(C)C2=O)cc([N+](=O)[O-])c1O
Genome polyprotein
  IC50: 19.9 µM (active)
[1]
  IC50: > 67.5 µM (inactive)
HEK293 [2]
  IC50: 51.7 µM (inactive)

## CCN1CCN(Cc2ccc(NC(=O)c3ccc(C)c(NC(=O)C(=O)c4c[nH]c5ccccc45)c3)cc2C(F)(F)F)CC1
[5]
  AC50: 9.8 µM (active)
[3]
  IC50: 1.09 µM (active)
[6]
  AC50: 7.49 µM (active)
[7]
  AC50: 3.42 µM (active)
HEK293 [8]
  IC50: 18.5 µM (active)
HEK293 [9]
  IC50: 4.96 µM (active)
[4]
  IC50: 2.15 µM (active)
HEK293 [10]
  IC50: 13.1 µM (inactive)
HEK293 [11]
  EC50: 17.2 µM (active)

## COc1ccc(CNCC(=O)Nc2sccc2C#N)cc1
[12]
  AC50: 25 µM (active)

## COc1ccc(CC2C(=O)NC(=O)N(c3ccccc3)C2=O)c(OC)c1 (centres undefined)
[13]
  IC50: > 64 µM (inactive)
[12]
  AC50: 7.62 µM (active)

## CCOCCCNC(=O)CCC(=O)NNc1nc2ccccc2c2nc(C)nn12
[14]
  EC50: 1.45 µM (active)
[15]
  EC50: > 300 µM (not active)
[16]
  IC50: > 100 µM (inactive)

## O=C(O)c1ccc(N/N=C/c2ccc(-c3ccccc3Cl)o2)cc1
CAAX prenyl protease 2
  AC50: 54.5 µM (active)

## CCOc1cc(C=C2C(=O)NC(=O)NC2=O)cc([N+](=O)[O-])c1O
[12]
  AC50: 2.49 µM (active)

## Cc1ccn(CC(=O)O)c(=O)c1
Coagulation factor XII
  IC50: > 50 µM (inactive)
